Article PMC10882974 (Environmental Science & Technology, 2024)
≈ marks a conversion by molar mass, not a printed value.

Assays:
C. elegans [1] = experiment: toxicokinetics experiment III: effect of E. coli on uptake; assay type: in vivo, Caenorhabditis elegans; settings: Figure 4B-D (experiments III and IV)
Procedure: (§1) In between cycles, the samples were kept on ice. […] Samples were stored at −20 °C until further analysis.
(§2) All parameters and units are summarized in SI A3.

[2] = as above; assay type: in vivo, Caenorhabditis elegans; settings: 10 mg/L, exp III, 10 mg/L fluoxetine, 10 h, read-out: k2NF elimination rate constant of norfluoxetine (converted)
Procedure: as §1, §2

C. elegans [3] = experiment: chemotaxis assay (diacetyl attractant); assay type: in vivo, Caenorhabditis elegans
Procedure: (§3) Two quadrants were spiked with 2 μL of an attractant (0.5% diacetyl), and two contained 2 μL water as a control.[30] After 45 min, during which the worms could move freely, the dish was moved to 4 °C to immobilize the worms, and the number of worms in each quadrant was counted. For all data points, the mean and standard deviation were plotted using Graphpad Prism 9.4. The ordinary differential equations and parameters fitted in Matlab were also entered in Graphpad Prism to simulate the internal concentrations over time.

C. elegans [4] = experiment: toxicokinetics experiment I: elimination after 1 h exposure; assay type: in vivo, Caenorhabditis elegans; settings: after 1 h exposure; no E. coli
Procedure: as §1, §2

[5] = as above; assay type: in vivo, Caenorhabditis elegans; settings: whole organism (worm homogenate)
Procedure: as §1, §2

C. elegans [6] = experiment: norfluoxetine uptake and coexposure with fluoxetine (SI A5); assay type: in vivo, Caenorhabditis elegans; settings: same exposure concentration; SI A5, Figure S9
Procedure: Alternatively, there could be a concentration-dependent increase in metabolism over time resulting from enzyme induction. This was modeled with an extra metabolism rate constant ke that was included after 10 h (eq 1a and Figure 4C,D).

E. coli OP50 = experiment: uptake and metabolism of fluoxetine in E. coli OP50 and medium; parameters: species or system Escherichia coli; settings: 10 mg/L fluoxetine, E. coli OD600 1.0
C. elegans [7] = experiment: toxicokinetics experiment IV: long-term exposure of L4 and adult worms; settings: 20 mg/L fluoxetine
Procedure: (§4) Three replicates of 1500 pooled C. elegans were used for each time point for each concentration. For experiments with E. coli, the OD600 was kept constant at 0.4.
(§5) C. elegans containing pellets were resuspended in 500 μL of methanol, and 0.6 g of […] ceramic beads (1.4 mm) were added to the vial. The samples were homogenized three times for 20 s using a Minilys homogenizer (Bertin Technologies) at middle speed. In between cycles, the samples were kept on ice. […] The supernatant was transferred to a glass tube, the pellet (including the ceramic beads) was resuspended in 500 μL of methanol, and the homogenization, sonication, and centrifugation cycle was repeated twice more to result in a three-step extraction. The total combined supernatant was concentrated to dryness under a gentle nitrogen stream and redissolved in 500 μL of methanol to a final concentration of the IS of 1 μM. Samples were stored at −20 °C until further analysis.
(§6) A one-compartment model was selected since chemical concentrations could only be measured for the whole organism. […] All parameters and units are summarized in SI A3.
(§7) The kinetic bioconcentration factor[33] was calculated with eq 3, and the ke and kt were only included when applicable to the respective experiment [drawing 4] 3
(§8) Model fitting was performed by adding the ordinary differential equations to the BYOM modeling package version 6.3 (http://www.debtox.info/byom.html) in Matlab R2022b.[34] […] Optimization was performed with the Melder–Mead Simplex Search method, minimizing the minus log-likelihood. […] Model script deviations from the BYOM model can be found in SI A9.

[8] = as above; settings: whole organism (worm homogenate), iv, 20 mg/L, k2NF elimination rate constant of norfluoxetine, exp IV, with E. coli, 20 mg/L fluoxetine, 48 h
Procedure: as §4, §5, §6, §7, §8

C. elegans [9] = experiment: calculated excretion rate of norfluoxetine from exposure medium concentrations (experiments III and IV, SI A6); assay type: in vivo, Caenorhabditis elegans
Excerpt: Norfluoxetine was also detected in the exposure medium for experiments III and IV and increased over time, indicating the elimination of norfluoxetine. […] However, this does allow for a calculation of the excretion rate of norfluoxetine, as shown in SI A6. […] This could be explained by the saturation of binding sites for norfluoxetine at these higher concentrations, but this still requires further investigation.

C. elegans [10] = experiment: general activity test (WMicrotracker); assay type: in vivo, Caenorhabditis elegans
Procedure: as §3, with “counted. The general activity was measured with a WMicrotracker from Phylumtech. This system measured the collective movement in multiwell plates by detecting the number of interruptions of an infrared beam over time. The total number of interruptions over a 30 min period was calculated with the Wmicrotracker software. […]” for “counted.”

[11] = at 10 mg/L, p < 0.01 Bonferroni post hoc

NCCC(Oc1ccc(C(F)(F)F)cc1)c1ccccc1 (stereo not drawn) [norfluoxetine]
elimination rate (k2NF) (C. elegans [1]): around 0.12 /h | transformation rate kt (norfluoxetine formation) (C. elegans [1]): around 0.06 1/h | k el ([2]; whole organism (homogenate of pooled worms), no E. coli): 2.78e-08 s⁻¹ | k el ([2]; whole organism (worm homogenate), with E. coli, k1, k2FLX, k2NF, kt constrained (eq 1b)): 2.78e-08 s⁻¹ | k el ([2]; whole organism (worm homogenate), with E. coli, no constraint): 3.33e-05 s⁻¹ | chemotaxis index compared to fluoxetine (C. elegans [3]; [11]): significantly lower | EC50 (C. elegans [3]; nominal concentrations, 72 h exposure from L1, S medium with E. coli OD600 0.4, read-out: EC50 for chemotaxis (+95% confidence intervals)): 14.2 µg/mL (≈ 48.2 µM) | elimination over time after transfer to clean medium (C. elegans [4]): still present in small amounts after 24 h | k el ([5]; 1 h exposure (fluoxetine 0.5, 5, 20 mg/L; norfluoxetine 20 mg/L), then clean medium, no E. coli, read-out: k2sum elimination rate constant (+95% CI) (converted)): 0.000375 s⁻¹ | k el ([5]; 1 h exposure, then clean medium, slow phase after 1 h, no E. coli, read-out: k2slow elimination rate constant (+95% CI) (converted)): 2.36e-05 s⁻¹ | k el ([5]; calculated from k2sum and k2slow, read-out: k2fast elimination rate constant (converted)): 0.000351 s⁻¹ | internal concentrations of norfluoxetine compared to fluoxetine (C. elegans [6]): around 70% | norfluoxetine concentrations in medium and bacteria exposed to fluoxetine (E. coli OP50): negligible | norfluoxetine internal concentration relative to fluoxetine at steady state (C. elegans [7]; Figure 4D): around half of the fluoxetine concentrations | norfluoxetine internal concentration at steady state (C. elegans [7]; steady state after 10 h): approximately 80 mg/kgnem | k el [8]: 3.06e-05 s⁻¹ | calculated excretion rate of norfluoxetine (C. elegans [9]; 20 mg/L of fluoxetine exposure): around 0.5 /h | calculated excretion rate of norfluoxetine, increased value (C. elegans [9]; 20 mg/L of fluoxetine exposure, value it increased to): 0.83 | calculated excretion rate of norfluoxetine (C. elegans [9]; 0.5 and 10 mg/L of fluoxetine): around 0.1 /h | activity compared to fluoxetine (C. elegans [10]; [11]): significantly lower | EC50 (C. elegans [10]; nominal concentrations, S medium with E. coli OD600 0.4, 24 h exposure, read-out: EC50 for the effect on activity (+95% confidence intervals)): 10.1 µg/mL (≈ 34.2 µM)
